Measurements from patent US9023789B2, “Amylin analogs and pharmaceutical compositions thereof” (Novo Nordisk A/S, priority 2012, dated 2015).
Numbered stars: 1 amine (or outer) side, 2 acyl side, 3 side chain; on linkers, the order of the positions; unused ones are H or OH. Bridge positions count the residues as written; N and C are the ends. Side chains are listed from the residue outwards. Peptide text beside a SMILES is read from it. * marks the point of attachment. C20 diacid = O=C(O)CCCCCCCCCCCCCCCCCCC(=O)*; γGlu = O=C(O)[C@H](CCC(=O)[*:2])N[*:1]; AEEA = NCCOCCOCC(=O)O

Key:
[1] = target: T1, human amylin receptor (membranes from Amylin 3(a)/CRE-luc cells) (Homo sapiens, UniProt O60896+P30988); assay: ASSAY (V) binding to the human amylin receptor (SPA, 125I-rat amylin); conditions: for IC50: Table 4, read-out: hAmylin-R bind IC50;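 on all read-outs here: competition binding of cell membranes (35 ng/µL) mixed with SPA beads in 384-well plates at 40 µL total volume, read by scintillation counting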
T1 construct: expressed in transfected cells
T1 sequence (P30988 25-474): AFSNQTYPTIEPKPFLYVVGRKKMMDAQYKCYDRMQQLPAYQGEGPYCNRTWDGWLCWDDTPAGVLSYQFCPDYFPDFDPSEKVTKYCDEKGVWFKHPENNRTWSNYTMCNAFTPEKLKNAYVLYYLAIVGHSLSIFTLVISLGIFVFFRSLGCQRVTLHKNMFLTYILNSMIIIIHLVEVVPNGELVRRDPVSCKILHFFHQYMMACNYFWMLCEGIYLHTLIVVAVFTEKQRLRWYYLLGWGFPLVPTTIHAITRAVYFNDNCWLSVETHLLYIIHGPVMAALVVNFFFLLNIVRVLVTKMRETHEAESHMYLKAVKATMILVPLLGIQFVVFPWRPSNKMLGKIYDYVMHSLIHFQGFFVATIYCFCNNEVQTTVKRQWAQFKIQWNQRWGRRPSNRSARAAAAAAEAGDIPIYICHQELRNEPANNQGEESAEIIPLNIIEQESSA
T1 sequence (O60896 24-148 partner): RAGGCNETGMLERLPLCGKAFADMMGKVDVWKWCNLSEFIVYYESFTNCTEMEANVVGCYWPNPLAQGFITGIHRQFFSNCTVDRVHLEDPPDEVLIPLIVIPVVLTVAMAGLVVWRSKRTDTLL

[2] = ASSAY (III) ThT fibrillation assay for physical stability; type: physicochemical
Procedure, shortened: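 Formulations with 1 μM ThT, pH adjusted as required, incubated at 37 °C with 960 rpm orbital shaking; fluorescence (ex 444/em 485 nm) read every 20 min. Fibrillation reported as mean ThT fluorescence ± SD of 4–8 replicates at time points; polypeptide concentration measured by reverse-phase HPLC before and after, post-centrifugation.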

[3] = target: T2, human amylin 3(a) receptor (human calcitonin receptor + RAMP-3) in BHK570 cells (Homo sapiens, UniProt O60896+P30988); assay: ASSAY (II)a functional assay, human amylin receptor (CRE luciferase); type: cell-based; conditions: for EC50: human amylin receptor functional potency, assay (II), read-out: hAmylin-R funct. EC50
T2 construct: expressed in transfected cells
Procedure, shortened: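 BHK CRE-luc cells, calcitonin (a) receptor ± RAMP-3 (amylin 3(a)); overnight seeding, 37° C/5% CO2. 3 h ligand exposure, DMEM/10% FBS/10 mM Hepes pH 7.4. LucLite 30 min RT; luminescence (SPC).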

[4] = Table 5, selectivity, hCTR bind IC50 / hAmylin-R bind IC50
[5] = Table 7, human binding selectivity, included for comparison
[6] = Table 7a (preferred compounds), human binding selectivity, included for comparison
[7] = human functional selectivity: hCTR funct. EC50 / hAmylin-R funct. EC50
[8] = Table 5a, selectivity, hCTR bind IC50 / hAmylin-R bind IC50
[9] = Table 5b, selectivity, hCTR bind IC50 / hAmylin-R bind IC50
[10] = Table 5c, selectivity, hCTR bind IC50 / hAmylin-R bind IC50
[11] = ratio of human calcitonin receptor binding IC50 to human amylin receptor binding IC50
[12] = hCTR funct. EC50 divided by hAmylin-R funct. EC50
[13] = hCTR funct. EC50 over hAmylin-R funct. EC50

SMILES | IC50 [1] | Ratio hCT/hAmylin binding [1, 4] | Ratio hCT/hAmylin binding [1, 5] | Ratio hCT/hAmylin binding [1, 6] | ThT pH 4.0 lag time (h) [2] | EC50 [3] | Ratio hCT/hAmylin funct. [3, 7] | Ratio hCT/hAmylin binding [1, 8] | Ratio hCT/hAmylin binding [1, 9] | Ratio hCT/hAmylin binding [1, 10] | Ratio hCT/hAmylin binding [1, 11] | Ratio hCT/hAmylin funct. [3, 12] | Ratio hCT/hAmylin funct. [3, 13]
CC[C@H](C)[C@H](NC(=O)[C@H](C)NC(=O)CNC(=O)[C@H](Cc1ccccc1)NC(=O)[C@H](CC(N)=O)NC(=O)[C@H](CCCCNC(=O)CC[C@H](NC(=O)CC[C@H](NC(=O)CCCCCCCCCCCCCCCCCCC(=O)O)C(=O)O)C(=O)O)NC(=O)[C@H](CO)NC(=O)[C@H](CO)NC(=O)[C@H](Cc1c[nH]cn1)NC(=O)[C@H](CCCNC(=N)N)NC(=O)[C@H](CC(C)C)NC(=O)[C@H](Cc1ccccc1)NC(=O)[C@H](CC(=O)O)NC(=O)[C@H](C)NC(=O)[C@H](CC(C)C)NC(=O)[C@H](CCCNC(=N)N)NC(=O)[C@H](CCC(N)=O)NC(=O)[C@@H](NC(=O)[C@H](C)NC(=O)[C@@H]1CSSC[C@H](NC(=O)[C@@H](N)CCCCN)C(=O)N[C@@H](CC(N)=O)C(=O)N[C@@H]([C@@H](C)O)C(=O)N[C@@H](C)C(=O)N[C@@H]([C@@H](C)O)C(=O)N1)[C@@H](C)O)C(=O)N1CCC[C@H]1C(=O)N[C@@H](CO)C(=O)N[C@@H](CO)C(=O)N[C@H](C(=O)N[C@@H](CC(N)=O)C(=O)N[C@H](C(=O)NCC(=O)N[C@@H](CO)C(=O)N[C@@H](CC(=O)O)C(=O)N[C@H](C(=O)N[C@@H](Cc1ccc(O)cc1)C(N)=O)[C@@H](C)O)C(C)C)[C@@H](C)O [Example 59] (H-KCNTATCATQRLADFLRHSSK([γGlu-γGlu-C20 diacid])NFGAIPSSTNVGSDTY-NH2; disulfide 2-7; N-terminus assumed) | 1.19 nM | 4.3 | 4.3 | 4.3 | 23 h | 0.389 nM | 5.0 |  |  |  |  |  | 
CC[C@H](C)[C@H](NC(=O)[C@H](C)NC(=O)CNC(=O)[C@H](Cc1ccccc1)NC(=O)[C@H](CC(N)=O)NC(=O)[C@@H]1CCCN1C(=O)[C@H](CO)NC(=O)[C@H](CO)NC(=O)[C@H](Cc1c[nH]cn1)NC(=O)[C@H](CCCNC(=N)N)NC(=O)[C@H](CC(C)C)NC(=O)[C@H](Cc1ccccc1)NC(=O)[C@H](CCCNC(=N)N)NC(=O)[C@H](C)NC(=O)[C@H](CC(C)C)NC(=O)[C@H](CCCNC(=N)N)NC(=O)[C@H](CCC(N)=O)NC(=O)[C@@H](NC(=O)[C@H](C)NC(=O)[C@@H]1CSSC[C@H](NC(=O)[C@@H](N)CCCCNC(=O)CC[C@H](NC(=O)CCCCCCCCCCCCCCCCCCC(=O)O)C(=O)O)C(=O)N[C@@H](CC(N)=O)C(=O)N[C@@H]([C@@H](C)O)C(=O)N[C@@H](C)C(=O)N[C@@H]([C@@H](C)O)C(=O)N1)[C@@H](C)O)C(=O)N1CCC[C@H]1C(=O)N[C@@H](CO)C(=O)N[C@@H](CO)C(=O)N[C@H](C(=O)N1CCC[C@H]1C(=O)N[C@H](C(=O)NCC(=O)N[C@@H](CO)C(=O)N[C@@H](CC(N)=O)C(=O)N[C@H](C(=O)N[C@@H](Cc1ccc(O)cc1)C(N)=O)[C@@H](C)O)C(C)C)[C@@H](C)O [Example 63] (H-K([γGlu-C20 diacid])CNTATCATQRLARFLRHSSPNFGAIPSSTPVGSNTY-NH2; disulfide 2-7 (inferred); N-terminus assumed) |  | 157.1 | 157.1 | 157.1 | 45 h |  | 138.7 | 157.1 | 157.1 | 157.1 | 157.1 | 138.7 | 138.7
CC[C@H](C)[C@H](NC(=O)[C@H](C)NC(=O)CNC(=O)[C@H](Cc1ccccc1)NC(=O)[C@H](CC(N)=O)NC(=O)[C@@H]1CCCN1C(=O)[C@H](CO)NC(=O)[C@H](CO)NC(=O)[C@H](Cc1c[nH]cn1)NC(=O)[C@H](CCCNC(=N)N)NC(=O)[C@H](CC(C)C)NC(=O)[C@H](Cc1ccccc1)NC(=O)[C@H](Cc1c[nH]cn1)NC(=O)[C@H](C)NC(=O)[C@H](CC(C)C)NC(=O)[C@H](CCCNC(=N)N)NC(=O)[C@H](CCC(N)=O)NC(=O)[C@@H](NC(=O)[C@H](C)NC(=O)[C@@H]1CSSC[C@H](NC(=O)[C@@H](N)CCCCNC(=O)CC[C@H](NC(=O)CCCCCCCCCCCCCCCCCCC(=O)O)C(=O)O)C(=O)N[C@@H](CC(N)=O)C(=O)N[C@@H]([C@@H](C)O)C(=O)N[C@@H](C)C(=O)N[C@@H]([C@@H](C)O)C(=O)N1)[C@@H](C)O)C(=O)N1CCC[C@H]1C(=O)N[C@@H](CO)C(=O)N[C@@H](CO)C(=O)N[C@H](C(=O)N[C@@H](CC(N)=O)C(=O)N[C@H](C(=O)NCC(=O)N[C@@H](CO)C(=O)N[C@@H](Cc1c[nH]cn1)C(=O)N[C@H](C(=O)N[C@@H](Cc1ccc(O)cc1)C(N)=O)[C@@H](C)O)C(C)C)[C@@H](C)O [Example 66] (H-K([γGlu-C20 diacid])CNTATCATQRLAHFLRHSSPNFGAIPSSTNVGSHTY-NH2; disulfide 2-7; N-terminus assumed) | 0.396 nM | 45.5 | 45.5 | 45.5 | 45 h | 0.027 nM | 20.1 | 45.5 | 45.5 | 45.5 | 45.5 | 20.1 | 20.1
CC[C@H](C)[C@H](NC(=O)[C@H](C)NC(=O)CNC(=O)[C@H](Cc1ccccc1)NC(=O)[C@H](CC(N)=O)NC(=O)[C@@H]1CCCN1C(=O)[C@H](CO)NC(=O)[C@H](CO)NC(=O)[C@H](Cc1c[nH]cn1)NC(=O)[C@H](CCCNC(=N)N)NC(=O)[C@H](CC(C)C)NC(=O)[C@H](Cc1ccccc1)NC(=O)[C@H](Cc1c[nH]cn1)NC(=O)[C@H](C)NC(=O)[C@H](CC(C)C)NC(=O)[C@H](CCCNC(=N)N)NC(=O)[C@H](CCC(N)=O)NC(=O)[C@@H](NC(=O)[C@H](C)NC(=O)[C@@H]1CSSC[C@H](NC(=O)[C@@H](N)CCCCNC(=O)COCCOCCNC(=O)CC[C@H](NC(=O)CCCCCCCCCCCCCCCCCCC(=O)O)C(=O)O)C(=O)N[C@@H](CC(N)=O)C(=O)N[C@@H]([C@@H](C)O)C(=O)N[C@@H](C)C(=O)N[C@@H]([C@@H](C)O)C(=O)N1)[C@@H](C)O)C(=O)N1CCC[C@H]1C(=O)N[C@@H](CO)C(=O)N[C@@H](CO)C(=O)N[C@H](C(=O)N[C@@H](CC(N)=O)C(=O)N[C@H](C(=O)NCC(=O)N[C@@H](CO)C(=O)N[C@@H](CC(N)=O)C(=O)N[C@H](C(=O)N[C@@H](Cc1ccc(O)cc1)C(N)=O)[C@@H](C)O)C(C)C)[C@@H](C)O [Example 69] (H-K([AEEA-γGlu-C20 diacid])CNTATCATQRLAHFLRHSSPNFGAIPSSTNVGSNTY-NH2; disulfide 2-7; N-terminus assumed) | 0.133 nM | 65.3 | 65.3 | 65.3 | 22 h | 0.094 nM | 13.3 | 65.3 | 65.3 | 65.3 | 65.3 | 13.3 | 13.3
